Laboratory results as given in ChEMBL document CHEMBL1133888, “Development and in vitro efficacy of novel MMP2 and MMP9 specific doxorubicin albumin conjugates” (Bioorg Med Chem Lett, 2001).
pIC50: −log10 of the molar value.

Test: Inhibitory effect against murine renal cell carcinoma cell line (RENCA cells) using a BrdU-incorporation assay
Assay type: functional, cell-based
Conditions: Mus musculus

- pIC50: > 8.00
Structure (SMILES): COc1cccc2c1C(=O)c1c(O)c3c(c(O)c1C2=O)C[C@@](O)(C(=O)CO)C[C@@H]3O[C@H]1C[C@H](N)[C@H](O)[C@H](C)O1 [DOXORUBICIN]
